Here are results for one compound from patent publication US20060100155A1, “Method for the therapeutic management of endometriosis” (priority 1999, published 2006).

Non-standard residues stand in square brackets, D forms with d. Residues, ends and D or L forms follow the SMILES beside them. dPhe(4-Cl) = N[C@H](Cc1ccc(Cl)cc1)C(=O)O; d2Nal = N[C@H](Cc1ccc2ccccc2c1)C(=O)O; dCit = NC(=O)NCCC[C@@H](N)C(=O)O; d3Pal = N[C@H](Cc1cccnc1)C(=O)O

The subject of this data set is patients with confirmed endometriosis. The data set can be described thus: Weekly s.c. administration of 3 mg LHRH antagonist for 8 weeks to patients with confirmed endometriosis. The following applies: for hot flushes or other (estradiol) withdrawal symptoms / proliferation of the endometrium (histological biopsies): 3 mg weekly for 8 weeks; for proliferation of the endometrium (histological biopsies): at the end of treatment. It is filed as in vivo, human. The method, then: The weekly administration of an adequate dose of an LHRH antagonist, e.g. 3 mg Cetrotide® s.c./per week over a period of eight weeks leads to a controlled suppression of estrogen secretion so that serum concentrations between about 35 pg/ml and about 80 pg/ml, preferably between about 45-75 pg/ml, more preferably between about 50-75 pg/ml are obtained. […] Also the development of osteoporosis can be avoided.

In the case of `CC(=O)N[C@H](Cc1ccc2ccccc2c1)C(=O)N[C@H](Cc1ccc(Cl)cc1)C(=O)N[C@H](Cc1cccnc1)C(=O)N[C@@H](CO)C(=O)N[C@@H](Cc1ccc(O)cc1)C(=O)N[C@H](CCCNC(N)=O)C(=O)N[C@@H](CC(C)C)C(=O)N[C@@H](CCCNC(=N)N)C(=O)N1CCC[C@H]1C(=O)N[C@H](C)C(N)=O` [Cetrorelix acetate] (Ac-[d2Nal][dPhe(4-Cl)][d3Pal]SY[dCit]LRP[dA]-NH2), the “hot flushes or other (estradiol) withdrawal symptoms” value was “avoiding any hot flushes or other withdrawal symptoms” and the “proliferation of the endometrium (histological biopsies)” value is “no proliferation of the endometrium”. For the same compound, where the note is “3 mg s.c. weekly for 8 weeks”, the ovarian cyst formation entry was “No ovarian cyst formation occurred” and the “progress of the disease confirmed by 2nd look laparascopy” value is “without any progress of the disease”. Besides, under “listed as Cetrorelix”, the “proliferation of the endometrium (histological biopsies)” value is listed as “without proliferation of the endometrium” and the “hot flushes or other (estradiol) withdrawal symptoms” value is “without any signs of estradiol withdrawal symptoms”.
